For data set [1] the following is noted: more specifically by glomerular filtration; cited from earlier work.
The nature of data set [2]: GFR measurement with iohexol clearance (mGFR), living kidney donor candidates. In kind it is in vivo. How it is done: (§1) All living kidney donor candidates investigated in Nephrology Department between July 2016 and October 2022, were eligible for inclusion. In accordance with the KDIGO guidelines (Lentine K L et al. ([11])), GFR was measured in all these individuals from iohexol clearance. […] The CT urography had to include 4 polychromatic acquisition phases (unenhanced, arterial, nephrographic, and excretory phases) with a monophasic injection of iomeprol at 350 or 400 mg of iodine per milliliter (Iomeron® 350 or 400, Bracco Imaging, Milano, Italy).
(§2) After a 5 mL bolus injection of iohexol (300 mg/L Omnipaque®; GE Healthcare, France), and an equilibration period (time the tracer takes to distribute in the extracellular compartment), blood and urine samples were collected over four to six consecutive clearance periods. We performed six 30-min periods after a 90-min equilibration period until July 2019, then four 40-min periods after a 120-min equilibration. The concentrations of iohexol in serum and urine were determined by high-performance liquid chromatography (HPLC) as previously described (Cavalier E et al. ([12])). Measured GFR (mGFR) was the mean of the four to six clearance-period values calculated as follows: U×V/P, where U is the concentration of iohexol in the urine collected during the period, V is the urinary flow rate during the period, and P is the serum concentration of iohexol at mid period. Given the negative bias of this GFR measurement method (Seegmiller J C et al. ([13]), Stehlé T et al. ([14])), the following correction was used: mGFR=1.15×iohexol urinary clearance+1.3 (Stehlé T et al. ([14])). If voiding was irregular or incomplete or in case of urine loss, mGFR was calculated with iohexol plasma clearance determined from the plasma disappearance curve, with Bröchner-Mortensen correction model for the missing early compartment (Bröchner-Mortensen J. A ([15])).

Data set [3] is described as follows: GFR measurement with iohexol clearance, chronic kidney disease patients. In kind it is in vivo. As to conditions: mean ± SD, 28 CKD patients. How it is done: as §2, with “Given the negative bias of this GFR measurement method (Seegmiller J C et al. ([13]), Stehlé T et al. ([14])), the following correction was used: mGFR=1.15×iohexol urinary clearance+1.3 (Stehlé T et al. ([14])).” left out, “([15])). […]” for “([15])).”
Iohexol clearance was measured as previously described in the example 1.

The conditions of data set [4]: cited from earlier work.
For data set [5] the following is noted: after a bolus injection; cited from earlier work.
The nature of data set [6]: GFR measurement with iomeprol clearance assessed by CT urography (CT-mGFR), living kidney donor candidates. In kind it is in vivo. How it is done: This is a cross-sectional study using data from kidney donor candidates who were screened in hospital between July 2016 and October 2022, with both GFR measurement by iohexol clearance, and kidney morphology assessment by CT urogaphy.
as §1
CT-mGFR was assessed by the same U×V/P calculation used to determine the urinary clearance of iohexol: the amount of iomeprol excreted through the urinary system during a given period of time was divided by the mean serum iomeprol concentration during the same period. The blood and urine concentration of iomeprol were assessed by attenuation measurement (Hounsfield Units, HU) in the different areas of interest. The time periods were derived from the acquisition time of the different phases. […] Manual segmentations of bladder, upper urinary tracts and kidneys were performed using the Advantage Windows software (Advantage Window v4.7; GE Healthcare, Buc, France), using different thresholds depending on the CT phase and then manually finalized. For non-contrast and portal venous phase: only a lower limit was set to 0 HU, in order to exclude fat pixels. For excretory phases: a specific threshold was adapted for each patient based on visual analysis in order to reduce extra-urinary pixels as much as possible. Also, the lower threshold used for upper excretory tract was used as the higher threshold for kidney segmentation to avoid overlap in segmentations. The urinary excretion rate of iomeprol between arterial and excretory phases (U×V, expressed as HU/min) was calculated from urinary excretion of iomeprol into the bladder (Uexcr-Bladder), urinary excretion of iomeprol into the upper excretory tract (calyces, pelvis, ureters) (Uexcr-tract), and urinary excretion of iomeprol into the kidney tubules (Uexcr-tubules): U×V=Uexcr-Bladder+Uexcr-tract+Uexcr-tubules. Uexcr-bladder was the volume of the bladder at the excretory phase (Bladder-Volume) multiplied by the mean CT-attenuation of the bladder at the excretory phase (HU-Bladder-excr) minus the CT-attenuation of the urine in bladder at the unenhanced phase (HU-Bladder-unenhanced), then divided by the time period between the excretory phase and the arterial phase (time period): Uexcr-Bladder=Bladder-volume×(HU-Bladder-excr−HU-Bladder-unenhanced)/time period. When the bladder was not included on the unenhanced phase, urine CT-attenuation could be measured on the nephrographic phase, the urine density at the nephrographic phase being slightly higher than at the unenhanced phase, but without clinical consequence on the CT-mGFR calculation. Uexcr-tract was determined in the same way by studying the upper excretory tract (calyces, pelvis, ureters) instead of the bladder. Uexcr-tubules was the volume of both kidneys (Kidney-volumes) multiplied by mean CT-attenuation of kidneys at the excretory phase (HU-Kidney-excr) minus mean CT-attenuation of kidneys at the unenhanced phase (HU-Kidney-unenhanced), then divided by time period: Uexcr-tubules=Kidney-volumes×(HU-Kidney-excr-HU-Kidney-unenhanced)/time period. The denominator of the U×V/P equation, was the calculated serum iomeprol concentration at the midpoint of the period between the arterial and excretory phases. At each phase, the difference between the CT attenuation of the aorta and the one at the unenhanced phase was the surrogate for the serum iomeprol concentration. […]

Data set [7] concerns plasma proteins. To be noted: cited from earlier work.

Here are results for four compounds from patent US20260294305A1, “METHOD FOR EX VIVO MEASURING GLOMERULAR FILTRATION RATE IN A SUBJECT” (Assistance Publique - Hôpitaux de Paris, priority 2023, published 2026).

The structures appear in SMILES notation. Where “and” joins values, the source holds several entries; their conditions need not be identical. Identical values can stand only once.

With `CN(CC(O)CO)C(=O)c1c(I)c(NC(=O)C(CO)CO)c(I)c(C(=O)N(C)CC(O)CO)c1I` (stereo not shown) [iobitridol], in data set [1], the Route of elimination result is given as “eliminated almost exclusively by the urinary excretion”.
Regarding `CC(=O)N(CC(O)CN(C(C)=O)c1c(I)c(C(=O)NCC(O)CO)c(I)c(C(=O)NCC(O)CO)c1I)c1c(I)c(C(=O)NCC(O)CO)c(I)c(C(=O)NCC(O)CO)c1I` (stereo not shown) [iodixanol], in data set [1], the Route of elimination result is listed as “eliminated almost exclusively by the urinary excretion”.
As for `CC(=O)N(CC(O)CO)c1c(I)c(C(=O)NCC(O)CO)c(I)c(C(=O)NCC(O)CO)c1I` (stereo not shown) [iohexol], the “mGFR (iohexol clearance), maximum” value in data set [2] (max) worked out at 140.2 ml/min/1.73 m^2. Further, the “mGFR (iohexol clearance)” value in data set [2] (mean ± SD, mGFR=1.15×iohexol urinary clearance+1.3) is on record as 99.7±19.1 ml/min/1.73 m^2. Besides, the “mGFR (iohexol clearance), minimum” value in data set [2] (min) is recorded as 59.9 ml/min/1.73 m^2. Also, the “mGFR, ml/min, mean ± SD” value in data set [2] (study population, Table 1) came to 99.7 ± 19.1 mL/min. Moreover, in data set [3], the “Iohexol clearance-measured GFR” value is 46.0 mL/min/1.73 m2 and 46.0 ± 15.8 mL/min/1.73 m2.
On to `CN(C(=O)CO)c1c(I)c(C(=O)NCC(O)CO)c(I)c(C(=O)NCC(O)CO)c1I` (stereo not shown) [iomeprol], for which the Water solubility entry in data set [4] is listed as “hydrosoluble”. In data set [5], the “Correlation between its clearance and that of inulin” value is recorded as “very good correlation”; the Extra-renal clearance entry was “negligible”; the Plasma concentration decline entry is given as “declined biexponentially”. Moreover, the “Serum iomeprol concentrations assessed at the arterial phase” value in data set [6] (example patient, 0 min, aorta attenuation minus unenhanced) is 210.2 HU. For the same compound, in data set [6] (example patient, 0.77 min, aorta attenuation minus unenhanced), the “Serum iomeprol concentrations assessed at the nephrographic phase” value worked out at 88.3 HU. The “Serum iomeprol concentrations assessed at the excretory phase” value in data set [6] (example patient, 9.47 min, aorta attenuation minus unenhanced) worked out at 46.8 HU. For the same compound, the “Ln (iomeprol mid-period)” value in data set [6] (example patient, mid-period between arterial and excretory phases) is given as 4.396. In addition, the “CT-mGFR, maximum” value in data set [6] (max) came out at 174.0 ml/min/1.73 m^2. Moreover, the “Mean CT-mGFR (iomeprol clearance assessed by CT urography)” value in data set [6] (mean ± SD, n=75 living kidney donor candidates) is on record as 100.9±19.5 ml/min/1.73 m^2. The “CT-mGFR, minimum” value in data set [6] (min) came to 60.8 ml/min/1.73 m^2. Also, in data set [7], the Plasma protein binding result is “does not bind measurably to plasma proteins”.
